Drawing on PubChem BioAssay (NCI), this text covers GI50 and TGI for nine compounds.

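Protocol summary: plate cells (96-well), add compound at 5 concentrations, incubate 48 h, interpolate endpoints linearly. At the GI50, growth is halved. TGI marks complete inhibition of growth.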

Test in all cases: NCI anticancer screen, dose series, 48 h
Experiment [1] relates to EKVX NSCLC.
Experiment [2] concerns U251 CNS.
Experiment [3] relates to UACC-62 melanoma.
Experiment [4] relates to A549 NSCLC.
For experiment [5], the system named is MOLT-4 leukemia.
Experiment [6] deals with SW-620 colon.
Experiment [7] has as its system OVCAR-3 ovarian.
Experiment [8] concerns SF-539 CNS.
In experiment [9] the test system is SNB-19 CNS.
The test system of experiment [10] is CAKI-1 renal.

With `COC(=O)[C@]12CC[C@@H](C)[C@H](C)[C@@H]1C1=CC[C@@H]3[C@@]4(C)CC(=O)[C@H](O)[C@@]5(C)COC(=C45)C[C@@]3(C)[C@]1(C)CC2`, the GI50 in experiment [1] was 17.4 µM; in [2] it was 17.9 µM; in experiment [3] it was 15.7 µM; in [4], 23.9 µM; in [5], 18.7 µM; in experiment [6], 17.5 µM. Further, the GI50 in [7] was 19 µM; in experiment [8] it was 18.8 µM; in [9] it was 19 µM; in experiment [10], 15.6 µM. Also, the TGI in experiment [1] is 34.2 µM; in experiment [2], 31.9 µM; in [3], 31.6 µM; in experiment [4] it was 41.5 µM; in experiment [5], 39.1 µM; in experiment [6], 33.6 µM. Further, the TGI in experiment [7] came out at 34.8 µM; in experiment [8], 37.2 µM; in experiment [9] it was 42.1 µM; in [10], 29.3 µM.
Consider `CC1(C)CC(=O)C2=C(C1)NC(SSC1=C(C#N)C(c3ccccc3)C3=C(CC(C)(C)CC3=O)N1)=C(C#N)C2c1ccccc1` (stereo not given), for which the GI50 is 28.6 µg/mL in [1]; 33.2 µg/mL in experiment [2]; 26.3 µg/mL in experiment [3]; 50.5 µg/mL in [4]; 37.7 µg/mL in [5]; 28.6 µg/mL in experiment [6]. Moreover, the GI50 is 26.3 µg/mL in [7], 26.9 µg/mL in experiment [8], 89.2 µg/mL in experiment [9] and 28.3 µg/mL in [10]. Moreover, the TGI in experiment [1] is 56.2 µg/mL; in [2], 64.2 µg/mL; in experiment [3] it was 47.6 µg/mL; in experiment [4], greater than 150 µg/mL; in [5] it was 104 µg/mL; in experiment [6], 51.8 µg/mL. The TGI in experiment [7] was 47.8 µg/mL; in experiment [8] it was 51 µg/mL; in [9] it was greater than 150 µg/mL; in [10], 49.4 µg/mL.
Regarding `CC1=C(C(=O)Nc2ccc([N+](=O)[O-])cc2)C(c2ccco2)C(C(=O)Nc2ccc([N+](=O)[O-])cc2)=C(C)N1`, the TGI in experiment [1] is 73.6 µM; in experiment [2], greater than 100 µM; in experiment [4], greater than 100 µM; in experiment [5], 52.5 µM; in experiment [6] it was greater than 100 µM; in [7], 88.3 µM. In addition, the TGI in experiment [8] was greater than 100 µM; in experiment [9], greater than 100 µM; in experiment [10] it was 90.1 µM.
With `O=C1C=C[C@]2(C[C@@H](c3cccc(C(F)(F)F)c3)O[C@@H](c3cccc(C(F)(F)F)c3)O2)O1`, the GI50 in experiment [1] was 12.9 µM; in experiment [2], 2.58 µM; in [3] it was 1.77 µM; in experiment [4], 5.57 µM; in [6], 1.76 µM; in [7], 1.6 µM. Besides, the GI50 in experiment [8] is 1.43 µM; in [9], 3.13 µM; in experiment [10] it was 2.95 µM. Besides, the TGI in experiment [1] turned out to be 27.7 µM; in [2] it was 12.9 µM; in experiment [3], 4.63 µM; in experiment [4], 20.4 µM; in [6] it was 5.14 µM; in [7] it was 3.71 µM. The figures for the TGI in [8], in experiment [9] and in experiment [10] were 3.31 µM, 16.1 µM and 12.4 µM, respectively.
In the case of `Cc1cc(Br)cc(C)c1NC(=O)C(=O)CC(=O)c1sc(-n2nc(-c3ccccc3)cc2-c2ccccc2)nc1C`, the TGI in experiment [1], in experiment [2], in [3], in experiment [4], in experiment [5] and in experiment [6] was greater than 100 µM throughout. For the same compound, the TGI in experiment [7], in experiment [9] and in [10] was greater than 100 µM in each case.
Turning to `O/N=C1/C(=C/c2ccc(F)cc2)CCCC1C(NO)c1ccc(F)cc1` (stereo not given), the TGI in [1] is greater than 100 µM; in [2], greater than 100 µM; in [3] it was greater than 100 µM; in experiment [4], greater than 100 µM; in [5] it was 55.3 µM; in [6], greater than 100 µM. The TGI in experiment [7] is 72.8 µM; in [8] it was greater than 100 µM; in experiment [9], greater than 100 µM; in [10], greater than 100 µM.
Take `CCCCCCC(=O)C/C(CCC(=O)N(Cc1ccccc1)Cc1ccccc1)=N\Nc1ccc([N+](=O)[O-])cc1[N+](=O)[O-]`: the TGI in [1], in experiment [2], in experiment [3], in [4], in [6] and in experiment [7] was greater than 100 µM throughout. Also, the TGI in experiment [8], in experiment [9] and in [10] was greater than 100 µM in each case.
For the compound `C[C@@H](c1ccc2nccn2c1)n1nnc2ncc(-c3cnn(C)c3)nc21`, the GI50 in experiment [1], in experiment [2], in experiment [3], in experiment [4], in experiment [5] and in experiment [6] was greater than 100 µM in each case. Besides, the GI50 in [7], in [8], in experiment [9] and in experiment [10] was greater than 100 µM each time. The TGI in [1], in experiment [2], in experiment [3], in experiment [4], in experiment [5] and in experiment [6] was greater than 100 µM throughout. Further, the TGI in experiment [7], in experiment [8], in experiment [9] and in experiment [10] was greater than 100 µM throughout.
In the case of `O=C1C2=C(c3ccccc31)C(c1ccc(Cl)cc1)N1C(=O)CCSC1=N2` (stereo not given), the TGI in [1], in experiment [2], in experiment [3], in experiment [4], in [5] and in [6] was greater than 100 µM throughout. The TGI in experiment [7], in experiment [8], in [9] and in experiment [10] was greater than 100 µM in each case.
